What was measured:
complement protein C2 = biological target: T1, complement protein C2 (Homo sapiens, UniProt P06681); experiment: Inactivation rate of complement protein C2; assay type: biochemical; conditions: for kinact/KI: Table II, pH 7.5, 25° C, [I] 0.19 to 1.25 mM, read-out: kobs/[I]
T1 sequence (P06681 21-752): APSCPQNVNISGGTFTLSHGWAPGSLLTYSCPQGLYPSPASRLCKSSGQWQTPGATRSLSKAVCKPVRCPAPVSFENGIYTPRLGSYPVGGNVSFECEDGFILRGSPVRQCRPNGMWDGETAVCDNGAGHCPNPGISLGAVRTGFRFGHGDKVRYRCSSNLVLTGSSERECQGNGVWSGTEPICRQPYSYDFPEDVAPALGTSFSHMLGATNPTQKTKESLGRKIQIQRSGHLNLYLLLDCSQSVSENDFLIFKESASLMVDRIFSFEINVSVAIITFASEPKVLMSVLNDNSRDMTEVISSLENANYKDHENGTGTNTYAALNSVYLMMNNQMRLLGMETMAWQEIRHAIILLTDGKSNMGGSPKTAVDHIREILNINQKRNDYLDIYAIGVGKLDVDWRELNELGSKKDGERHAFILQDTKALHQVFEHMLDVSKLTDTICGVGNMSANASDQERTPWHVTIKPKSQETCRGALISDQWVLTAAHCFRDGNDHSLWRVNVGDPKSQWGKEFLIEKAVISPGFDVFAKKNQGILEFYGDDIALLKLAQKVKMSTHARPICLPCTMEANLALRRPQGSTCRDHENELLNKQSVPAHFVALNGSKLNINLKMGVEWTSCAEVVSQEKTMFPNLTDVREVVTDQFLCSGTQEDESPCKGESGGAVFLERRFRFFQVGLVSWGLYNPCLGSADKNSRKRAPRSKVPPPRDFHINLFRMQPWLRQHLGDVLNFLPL
Procedure: (§1) Inactivation rates of serine proteases by substituted isocoumarins were measured by the incubation method. An aliquot of inhibitor (25 or 50 μl) in Me2 SO was added to a buffered enzyme solution (0.01-2.3 μM) to initiate the inactivation. Aliquots (50 μl) were withdrawn at various intervals and the residual enzymatic activity was measured. Me2 SO concentration in the reaction mixture was 8-12% (v/v). 0.1 Hepes, 0.01M CaCl2, pH 7.5 buffer was utilized for trypsin and coagulation enzymes. 0.1M Hepes, 0.5M NaCl, pH 7.5 was utilized for other serine proteases. The inhibitor concentrations are shown in all the tables. Peptide thioesters or peptide nitroanilides with appropriate sequence were used as substrates for various serine proteases. All peptide thioester hydrolysis rates were measured with assay mixtures containing 4,4'-dithiodipyridine (ε324 =19800M^-1 cm^-1; Grasetti & Murray, Arch. Biochem. Biophys. 119, pp 41-49 (1967)). Peptide 4-nitroanilide nitroanilide hydrolysis was measured at 410 nm (ε410 =8800M^-1 cm^-1; Erlanger et al., Arch. Biochem. Biophys. 95, pp 271-278 (1961)). First order inactivation rate constant (kobs) were obtained from plots of ln (vt /vo) vs time, and the correlation coefficients were greater than 0.98.
(§2) ^a Conditions were 0.1M Hepes, 0.5M NaCl, pH 7.5, 8-10% Me2 SO
(§3) and 25° C. Inactivation rates were measured by incubation method.
(§4) Enzyme concentrations were as follows: protein D, 1-9 μM; C2, 0.7-1
(§5) μM; B, 1.8 μM; Bb, 0.3-0.8 μM; Cl^- s, 0.07 μM; Cl^-

complement protein B = complement protein B (Homo sapiens, UniProt P00751); experiment: Inactivation rate of complement protein B; assay type: biochemical; conditions: for kinact/KI: Table II, pH 7.5, 25° C, [I] 0.19 to 1.25 mM, read-out: kobs/[I]
Sequence of complement protein B (P00751 26-764): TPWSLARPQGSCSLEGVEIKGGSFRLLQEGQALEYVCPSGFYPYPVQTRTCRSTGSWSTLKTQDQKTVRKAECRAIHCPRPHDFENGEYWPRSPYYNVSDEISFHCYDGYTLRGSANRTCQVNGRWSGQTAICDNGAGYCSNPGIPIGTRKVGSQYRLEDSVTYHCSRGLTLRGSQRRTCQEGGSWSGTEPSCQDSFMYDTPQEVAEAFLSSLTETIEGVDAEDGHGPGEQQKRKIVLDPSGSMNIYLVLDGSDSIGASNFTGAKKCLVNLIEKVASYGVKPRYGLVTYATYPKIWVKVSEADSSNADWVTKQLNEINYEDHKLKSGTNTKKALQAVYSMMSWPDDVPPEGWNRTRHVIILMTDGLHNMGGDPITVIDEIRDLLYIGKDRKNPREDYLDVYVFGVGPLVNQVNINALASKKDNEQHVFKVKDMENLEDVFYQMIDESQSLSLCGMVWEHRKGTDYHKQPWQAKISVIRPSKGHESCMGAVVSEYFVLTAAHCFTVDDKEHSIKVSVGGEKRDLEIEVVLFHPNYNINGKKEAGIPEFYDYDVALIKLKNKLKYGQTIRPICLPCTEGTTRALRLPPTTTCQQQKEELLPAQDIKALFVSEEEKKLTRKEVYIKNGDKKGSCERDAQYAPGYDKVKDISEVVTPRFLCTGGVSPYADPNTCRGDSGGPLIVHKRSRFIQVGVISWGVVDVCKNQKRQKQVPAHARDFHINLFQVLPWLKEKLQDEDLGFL
Procedure: as §1, §2, §3, §4, §5

human granzyme A = biological target: T2, human granzyme A (Homo sapiens, UniProt P12544); experiment: Inactivation rate of human granzyme A; assay type: biochemical; conditions: Table VII; pH 7.5, 25° C; [I] 0.4 to 45 μM; read-out: kobs/[I]
T2 construct: human cytotoxic lymphocyte granzyme A; endogenous in cells; host or cells: human cytotoxic lymphocytes
T2 sequence (P12544 29-262): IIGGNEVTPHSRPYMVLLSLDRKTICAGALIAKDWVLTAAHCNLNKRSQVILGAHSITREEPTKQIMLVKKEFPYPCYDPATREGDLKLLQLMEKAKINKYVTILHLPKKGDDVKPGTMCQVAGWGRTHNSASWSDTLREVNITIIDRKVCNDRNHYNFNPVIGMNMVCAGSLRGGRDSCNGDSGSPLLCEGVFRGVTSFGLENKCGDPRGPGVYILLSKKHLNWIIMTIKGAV
Procedure: as §1
^a Inactivation rates were measured at 0.1M Hepes, 0.01M CaCl2,
pH 7.5, 8% Me2 SO and 25° C. by incubation method. ZArg-SBzl
(74-85 μM) was used as the substrate to monitor the residual enzymatic

[1] = Prothrombin time (PT), rabbit plasma
Procedure: ^a Plasma and inhibitor were incubated at 37° C. for 1 min.,
Dade thromboplastin reagent was then added.
^b Plasma and inhibitor were incubated at 37° C. for 3 min.,
Orthobrain thromboplastin reagent was then added.

C2a = biological target: T3, C2a (Homo sapiens, UniProt P06681); experiment: Inactivation rate of complement fragment C2a; assay type: biochemical; conditions: Table II; pH 7.5, 25° C; [I] 0.19 to 1.25 mM; read-out: kobs/[I]
T3 construct: active fragments C2a, Bb
Procedure: as §1, §2
and 25° C. Inactivation rates were measured by incubation method. […]

human factor VIIa = biological target: T4, human factor VIIa (Homo sapiens, UniProt P08709); experiment: Inactivation rate of human factor VIIa; assay type: biochemical; conditions: Table I; pH 7.5, 25° C; [I] 5 to 44 μM; read-out: kobs/[I]
T4 construct: human factor VIIa
T4 sequence (P08709 213-466 limits assumed): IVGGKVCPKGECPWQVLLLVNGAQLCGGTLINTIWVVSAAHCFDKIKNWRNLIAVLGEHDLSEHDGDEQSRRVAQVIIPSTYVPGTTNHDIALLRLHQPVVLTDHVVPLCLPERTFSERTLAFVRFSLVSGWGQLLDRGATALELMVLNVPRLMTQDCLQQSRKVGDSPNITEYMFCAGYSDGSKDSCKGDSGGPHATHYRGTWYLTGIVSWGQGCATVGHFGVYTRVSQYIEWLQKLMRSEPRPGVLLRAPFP
T4 sequence (P08709 61-212 partner limits assumed): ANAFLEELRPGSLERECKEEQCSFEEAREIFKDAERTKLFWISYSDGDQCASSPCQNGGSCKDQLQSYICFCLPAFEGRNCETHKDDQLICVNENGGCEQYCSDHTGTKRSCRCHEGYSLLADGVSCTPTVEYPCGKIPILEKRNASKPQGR

[2] = Spontaneous hydrolysis in rabbit plasma; assay type: in vitro ADME; conditions: for half-life: rabbit plasma, read-out: t1/2 for spontaneous hydrolysis
[3] = biological target: T5, rat mast cell protease II (Rattus norvegicus, UniProt P00770); experiment: Inactivation rate of rat mast cell protease II; assay type: biochemical; conditions: Table V; pH 7.5, 25° C; [I] 0.007 to 0.013 mM; read-out: kobs/[I]
T5 construct: rat mast cell protease II; from tissue; host or cells: rat mast cells (by the enzyme's name only)
T5 sequence (P00770 21-247): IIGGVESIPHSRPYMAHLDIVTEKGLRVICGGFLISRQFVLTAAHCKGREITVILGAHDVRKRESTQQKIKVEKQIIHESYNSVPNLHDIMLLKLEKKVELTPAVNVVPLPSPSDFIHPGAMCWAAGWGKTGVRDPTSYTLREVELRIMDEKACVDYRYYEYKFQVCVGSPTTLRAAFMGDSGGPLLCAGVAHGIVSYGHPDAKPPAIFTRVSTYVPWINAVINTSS
Procedure: as §1
^a Inactivation rates were measured at 0.1M Hepes, 0.5M NaCl, pH 7.5,
8-12% Me2 SO and 25° C. by incubation method. An aliquot of […]

**Q.** For `O=c1oc(Cl)c(Cl)c2ccccc12` [3,4-dichloroisocoumarin, reference compound], which “inhibition of C2 (in words)” value (complement protein C2) is on record?
**A.** do not show any inhibition

**Q.** What about the “inhibition of protein B (in words)” value (complement protein B) of the same compound?
**A.** do not show any inhibition

**Q.** What about the kinact/KI (human granzyme A) of the same compound?
**A.** 50 M⁻¹ s⁻¹

**Q.** And the PT ([1]; [I] 33 μM, 3 min, Orthobrain thromboplastin)?
**A.** 14.3 s

**Q.** Which kinact/KI (complement protein C2) does the source give for `N=C(N)SCCOc1oc(=O)c2ccccc2c1Cl` [3-(2-isothiureidoethoxy)-4-chloroisocoumarin] here?
**A.** 1.5 M⁻¹ s⁻¹

**Q.** What about the kinact/KI (C2a) of the same compound?
**A.** 1.4 M⁻¹ s⁻¹

**Q.** And the kinact/KI (complement protein B)?
**A.** 13 M⁻¹ s⁻¹

**Q.** For `NCCCOc1oc(=O)c2ccccc2c1Cl` [3-(3-aminopropoxy)-4-chloroisocoumarin], which kinact/KI (human granzyme A) is on record?
**A.** 2010 M⁻¹ s⁻¹

**Q.** With `N=C(N)SCCCOc1oc(=O)c2ccccc2c1Cl` [3-(3-isothiureidopropoxy)-4-chloroisocoumarin] as the compound, how does the kinact/KI (human factor VIIa) read?
**A.** 450 M⁻¹ s⁻¹

**Q.** And the kinact/KI (complement protein C2)?
**A.** 0.5 M⁻¹ s⁻¹

**Q.** And the kinact/KI (C2a)?
**A.** 0.8 M⁻¹ s⁻¹

**Q.** What about the kinact/KI (complement protein B) of the same compound?
**A.** 0.4 M⁻¹ s⁻¹

**Q.** What about the kinact/KI (human granzyme A) of the same compound?
**A.** 18400 M⁻¹ s⁻¹

**Q.** For `N=C(N)SCCCOc1oc(=O)c2cc(N)ccc2c1Cl` [7-amino-4-chloro-3-(3-isothiureidopropoxy)isocoumarin], which kinact/KI (human factor VIIa) is on record?
**A.** 430 M⁻¹ s⁻¹

**Q.** What about the kinact/KI (human granzyme A) of the same compound?
**A.** 6750 M⁻¹ s⁻¹

**Q.** And the “stability in rabbit plasma (in words)” value [2]?
**A.** fairly stable

**Q.** What about the half-life [2] of the same compound?
**A.** 2.33 h

**Q.** What about the PT ([1]; [I] 33 μM, 1 min, Dade thromboplastin) of the same compound?
**A.** 13.7 s

**Q.** What about the PT ([1]; [I] 131 μM, 1 min, Dade thromboplastin) of the same compound?
**A.** 62.0 s

**Q.** With `CCOc1oc(=O)c2cc(NC(=N)N)ccc2c1Cl` [7-guanidino-3-ethoxy-4-chloroisocoumarin, 7-guanidino-4-chloro-3-ethoxyisocoumarin] as the compound, how does the kinact/KI (human factor VIIa) read?
**A.** 2200 M⁻¹ s⁻¹

**Q.** And the kinact/KI (complement protein B)?
**A.** 167 M⁻¹ s⁻¹

**Q.** And the kinact/KI [3]?
**A.** 1100 M⁻¹ s⁻¹

**Q.** What about the kinact/KI (human granzyme A) of the same compound?
**A.** 6850 M⁻¹ s⁻¹

**Q.** What about the half-life [2] of the same compound?
**A.** 0.07 h

**Q.** What about the PT ([1]; [I] 15 μM, 1 min, Dade thromboplastin) of the same compound?
**A.** 14.2 s

**Q.** And the PT ([1]; [I] 31 μM, 1 min, Dade thromboplastin)?
**A.** 27.4 s

**Q.** What about the PT ([1]; [I] 31 μM, 3 min, Orthobrain thromboplastin) of the same compound?
**A.** 17.2 s

**Q.** What about the PT ([1]; [I] 124 μM, 3 min, Orthobrain thromboplastin) of the same compound?
**A.** > 120 s

**Q.** With `N=C(N)Nc1ccc2c(Cl)c(OCCc3ccccc3)oc(=O)c2c1` [7-guanidino-4-chloro-3-(2-phenylethoxy)isocoumarin] as the compound, how does the kinact/KI [3] read?
**A.** 4100 M⁻¹ s⁻¹

**Q.** Which kinact/KI (complement protein B) does the source give for `COc1oc(=O)c2cc(NC(=N)N)ccc2c1Cl` [7-guanidino-4-chloro-3-methoxyisocoumarin] here?
**A.** 285 M⁻¹ s⁻¹
